The values below come from patent US11110103B2, “Inhibitors of glucocorticoid receptor” (ORIC Pharmaceuticals, Inc., priority 2015, dated 2021).

One assay has as its system AR. Put plainly: In Vitro AR Agonism Assay (LNAR reporter cell line). Conditions: LNAR cells, RPMI + 10% CSS, 18-24 hrs; maximum response of Mifepristone set to 1. Format: cell-based. On the procedure: Example 6: In Vitro AR Agonism Assay
The AR agonism assay was done in the LNAR reporter cell line which has overexpressed AR and 4XARE-Luc genes. This cell line is sensitive to even minor partial AR agonism activity in hormone-deprived media (CSS). The assays were done in RPMI (without phenol red)+10% CSS using 6000 LNAR cells/well in 384-well plates and compounds were incubated with cells in […] incubator for 18-24 hrs. OneGlo reagent (25 uL/well) was added and plates were read with luminometer within 3 minutes.
To gauge the AR partial agonism activity, Mifepristone is included as a standard in the assay. AR agonism assay results are quantified by determining the ratio of the maximum response of individual compounds to the maximum response of Mifepristone (arbitrarily set to 1). Values of Table 3 are reported as Relative Maximum Response to Mifepristone. This general trend of AR agonism was shown for the class of compounds described herein.
With `CC#C[C@]1(O)CC[C@H]2[C@@H]3CCC4=CC(=O)CCC4=C3[C@@H](c3ccc(C)c(C)c3)C[C@@]21C` [drawing 245], the “Relative Maximum Response to Mifepristone” value (shortened to “Relative Maximum Response”) is “A (A: ≤0.4)”.

Regarding `CC#C[C@]1(O)CC[C@H]2[C@@H]3CCC4=CC(=O)CCC4=C3[C@@H](c3ccc(S(=O)(=O)N4CCCCC4)cc3)C[C@@]21C` [drawing 241], the “Relative Maximum Response” value was “A (A: ≤0.4)”.

As to `CC#C[C@]1(O)CC[C@H]2[C@@H]3CCC4=CC(=O)CCC4=C3[C@@H](c3ccc(F)c(C#N)c3)C[C@@]21C` [drawing 247], the “Relative Maximum Response” value is given as “B (B: >0.4)”.

Consider `CC#C[C@]1(O)CC[C@H]2[C@@H]3CCC4=CC(=O)CCC4=C3[C@@H](c3ccc(C(C)C)c(N(C)C)c3)C[C@@]21C` [drawing 249], for which the “Relative Maximum Response” value was “A (A: ≤0.4)”.

As for `CC#C[C@]1(O)CC[C@H]2[C@@H]3CCC4=CC(=O)CCC4=C3[C@@H](c3cccc(OCC)c3)C[C@@]21C` [drawing 244], the “Relative Maximum Response” value is given as “A (A: ≤0.4)”.

`CC#C[C@]1(O)[C@H](C)C[C@H]2[C@@H]3CCC4=CC(=O)CCC4=C3[C@@H](c3ccc(S(=O)(=O)N4CCCCC4)cc3)C[C@@]21C` [drawing 255]: the “Relative Maximum Response” value is listed as “A (A: ≤0.4)”.

For `CC#C[C@]1(O)CC[C@H]2[C@@H]3CCC4=CC(=O)CCC4=C3[C@@H](c3cc(F)cc(F)c3)C[C@@]21C` [drawing 246], the “Relative Maximum Response” value is “A (A: ≤0.4)”.

`CC#C[C@]1(O)CC[C@H]2[C@@H]3CCC4=CC(=O)CCC4=C3[C@@H](c3ccc(Cl)c(OC)c3)C[C@@]21C` [drawing 251]: the “Relative Maximum Response” value is given as “A (A: ≤0.4)”.

For the compound `CC#C[C@]1(O)CC[C@H]2[C@@H]3CCC4=CC(=O)CCC4=C3[C@@H](c3ccc(S(=O)(=O)C(C)(C)C)cc3)C[C@@]21C` [drawing 242], the “Relative Maximum Response” value is recorded as “A (A: ≤0.4)”.

For the compound `CC#C[C@]1(O)CC[C@H]2[C@@H]3CCC4=CC(=O)CCC4=C3[C@@H](c3cc(F)c(C)c(F)c3)C[C@@]21C` [drawing 252], the “Relative Maximum Response” value is “A (A: ≤0.4)”.

`CC#C[C@]1(O)[C@H](C)C[C@H]2[C@@H]3CCC4=CC(=O)CCC4=C3[C@@H](c3ccc(N4CCOC[C@H]4C)cc3)C[C@@]21C` [drawing 256]: the “Relative Maximum Response” value is reported as “B (B: >0.4)”.

In the case of `CC#C[C@]1(O)CC[C@H]2[C@@H]3CCC4=CC(=O)CCC4=C3[C@@H](c3cccc(C(C)C)c3)C[C@@]21C` [drawing 243], the “Relative Maximum Response” value is “A (A: ≤0.4)”.

Still in this assay, the particulars now being: in concentrations as low as 10 nM.
In the case of `CC#C[C@]1(O)CC[C@H]2[C@@H]3CCC4=CC(=O)CCC4=C3[C@@H](c3ccc(N(C)C)cc3)C[C@@]21C` [Mifepristone, reference compound], the AR partial agonism result is “strong partial AR agonism”.
